Test results: ChEMBL document CHEMBL3600288, “Development of Selective Covalent Janus Kinase 3 Inhibitors” (J Med Chem, 2015)

What was measured:
Format in all cases: ADME, organism-based
[1] = Cmax in Swiss albino mouse at 2 mg/kg, iv; parameters: dose 2 mg/kg, route intravenous; conditions: in vivo
[2] = tested on: Mus musculus; assay: AUClast in Swiss albino mouse at 10 mg/kg, po; parameters: dose 10 mg/kg, route oral, time 0 - last; conditions: in vivo
[3] = Oral bioavailability in Swiss albino mouse at 10 mg/kg; conditions: in vivo
[4] = Cmax in Swiss albino mouse at 10 mg/kg, po; parameters: dose 10 mg/kg, route oral; conditions: in vivo
[5] = tested on: Mus musculus; assay: AUClast in Swiss albino mouse at 2 mg/kg, iv; parameters: dose 2 mg/kg, time 0 - last, route intravenous; conditions: in vivo
[6] = Tmax in Swiss albino mouse at 10 mg/kg, po; conditions: in vivo
[7] = Volume of distribution at steady state in Swiss albino mouse at 2 mg/kg, iv; conditions: in vivo, read-out: Vdss

SMILES: C=CC(=O)Nc1cccc(CNc2nc(Nc3ccc(N4CCN(C)CC4)cc3OC)ncc2Cl)c1
- Cmax [1]: 159 ng/mL
- AUClast [2]: 795.29 h/ng/mL
- bioavailability [3]: 66%
- Cmax [4]: 204 ng/mL
- AUClast [5]: 241.3 h/ng/mL
- Tmax [6]: 30 min
- Vd [7]: 18.4 L/kg
